# What was measured:
# human M1R = target: T1, human M1R (Homo sapiens, UniProt P11229); assay: [3H]‐pirenzepine binding assay (cooperativity, allosteric ternary complex model); design: expressed in transfected cells; conditions: between PAM and ACh; for Cooperativity Log α: 95% confidence intervals in parentheses
# T1 sequence (P11229 1-460): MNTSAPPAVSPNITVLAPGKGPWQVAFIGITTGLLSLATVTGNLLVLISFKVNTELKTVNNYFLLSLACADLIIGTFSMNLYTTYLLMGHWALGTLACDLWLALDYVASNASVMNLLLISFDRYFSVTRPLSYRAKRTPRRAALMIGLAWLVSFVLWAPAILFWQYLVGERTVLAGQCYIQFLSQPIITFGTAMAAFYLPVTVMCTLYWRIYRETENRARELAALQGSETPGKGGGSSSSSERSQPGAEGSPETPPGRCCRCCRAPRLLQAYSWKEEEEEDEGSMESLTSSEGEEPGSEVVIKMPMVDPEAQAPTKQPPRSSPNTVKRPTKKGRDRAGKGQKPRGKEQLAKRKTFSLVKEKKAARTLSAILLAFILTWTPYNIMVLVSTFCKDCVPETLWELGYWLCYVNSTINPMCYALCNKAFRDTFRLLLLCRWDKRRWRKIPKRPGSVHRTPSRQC
# Method: Cell membranes from FreeStyle 293 cells transiently expressing human M1R were incubated with T‐495 or MK‐7622 (0.1‐30 μmol/L), ACh (0.003‐3000 μmol/L), and 4 nmol/L [^3H]‐pirenzepine (PerkinElmer) in assay buffer (20 mmol/L HEPES, 100 mmol/L NaCl, 10 mmol/L MgCl2, and 0.1% fatty acid free BSA) for 2 hours at room temperature. The binding was terminated by filtration through GF/C filter plates (PerkinElmer) using a cell harvester (PerkinElmer) and five washed with 300 μL of 50 mmol/L Tris‐HCl. The GF/C plates were dried at 42°C; then, 25 μL of microscint 0 (PerkinElmer) was added. Radioactivity was counted using Topcount (PerkinElmer). Nonspecific binding was defined in the presence of 10 μmol/L atropine. To calculate the cooperativity of a PAM, the [^3H]‐pirenzepine binding assay data were fitted to the allosteric ternary complex model,35 using GraphPad Prism 5 software: Y=C/KC+αBC[B][C]/KBKC/1+A/KA+B/KB+C/KC+αAB[A][B]/KAKB+αBC[B][C]/KBKC
# where Y is the fractional specific [^3H]‐pirenzepine binding; [A], [B], and [C] are the concentrations of ACh, a PAM, and [^3H]‐pirenzepine, respectively; K A, K B, and K C are the equilibrium dissociation constants of ACh, a PAM, and [^3H]‐pirenzepine, respectively; and αAB and αBC are the cooperativities between a PAM and ACh or [^3H]‐pirenzepine, respectively.
# [1] = system: IP1 production in the mouse hippocampus; assay: In vivo IP1 assay, mouse hippocampus; conditions: p.o.; 3, 10, 30 mg/kg tested
# Method: Eight‐week‐old Long‐Evans rats, 8‐ to 9‐week‐old C57BL/6J mice, and 22‐ or 29‐week‐old M1R KO mice and their WT littermates were used in this study. On the day of the experiment, animals were placed in individual cages and acclimated for more than 1 hour. A test compound or vehicle was administered 2 hours before the animals were sacrificed. […] LiCl (10 mmol/kg, s.c.) was injected 1 hour before sacrifice. In the repeated administration study, a test compound was administered to mice once daily for 13 days; on day 14, animals were treated with a test compound and LiCl (10 mmol/kg, s.c.) and then sacrificed. Animals were killed by decapitation, and blood was collected into tubes containing ethylenediaminetetraacetic acid for pharmacokinetic analysis; brains were quickly dissected, frozen on dry ice, and stored at −80°C until analysis. […] IP1 and protein concentrations in the diluted supernatant were measured using IP‐One HTRF assay kit (Cisbio Bioassays) and BCA Protein Assay Kit (Thermo Fisher Scientific Inc), respectively, according to the manufacturers’ instructions. IP1 production was expressed as the ratio of IP1 to protein concentrations.
# [2] = system: ileum segment of ICR mice; assay: Spontaneous ileum contraction; design: species or system mouse; conditions: 0.01, 0.1, and 1 μmol/L applied cumulatively
# Method: ICR mice were fasted overnight and sacrificed by decapitation, and the ileum was removed and the luminal contents were gently flushed out with ice‐cold modified Krebs buffer (NaCl, 120.7 mmol/L; KCl, 5.9 mmol/L; NaHCO3, 15.5 mmol/L; MgCl2, 1.2 mmol/L; NaH2PO4, 1.2 mmol/L; CaCl2, 2.5 mmol/L; glucose, 11.5 mmol/L). The ileum segment (approximately 5 mm in length) was suspended in a 10‐mL organ bath filled with oxygenated (95% O2 and 5% CO2) modified Krebs buffer at 37°C. One end of the ileum segment was tied to a hook and the other end was secured with a silk thread to an isometric force transducer (MLT050/A, ADInstruments) connected to a data acquisition system (PowerLab 8/30 ML870 and Octal Bridge Amp ML228, ADInstruments). The ileum segment was subjected to an initial tension of 0.3 to 0.4 g and was allowed to equilibrate for at least 30 minutes. After the equilibration period, spontaneous contractions were measured for 3 minutes (pretreatment) and then increasing concentrations of a test compound (0.01, 0.1, and 1 μmol/L) were cumulatively applied at 3‐minute intervals. LabChart software (ADInstruments) was used to analyze the spontaneous contractions. The mean amplitude of spontaneous contractions at each concentration was normalized to that observed at pretreatment.
# [3] = Concentrations in mouse plasma and brain after single and repeated treatment; assay type: in vivo; conditions: C57BL/6J, oral, mean ± SD
# Method: (§1) Eight‐week‐old Long‐Evans rats, 8‐ to 9‐week‐old C57BL/6J mice, and 22‐ or 29‐week‐old M1R KO mice and their WT littermates were used in this study. On the day of the experiment, animals were placed in individual cages and acclimated for more than 1 hour. A test compound or vehicle was administered 2 hours before the animals were sacrificed. […] LiCl (10 mmol/kg, s.c.) was injected 1 hour before sacrifice. In the repeated administration study, a test compound was administered to mice once daily for 13 days; on day 14, animals were treated with a test compound and LiCl (10 mmol/kg, s.c.) and then sacrificed. Animals were killed by decapitation, and blood was collected into tubes containing ethylenediaminetetraacetic acid for pharmacokinetic analysis; brains were quickly dissected, frozen on dry ice, and stored at −80°C until analysis. Brain tissues were homogenized in 19 (for rat tissues) or 39 (for mouse tissue) volumes of homogenization buffer (10 mmol/L HEPES pH 7.4, 50 mmol/L LiCl, 150 mmol/L NaCl, and 1% Triton X‐100), and the homogenate was incubated on a rotator for 1 hour, followed by centrifugation. The supernatant was diluted with 39 (for rat tissues) or 19 (for mouse tissues) volumes of dilution buffer (10 mmol/L HEPES pH 7.4, 50 mmol/L LiCl, and 150 mmol/L NaCl). IP1 and protein concentrations in the diluted supernatant were measured using IP‐One HTRF assay kit (Cisbio Bioassays) and BCA Protein Assay Kit (Thermo Fisher Scientific Inc), respectively, according to the manufacturers’ instructions. IP1 production was expressed as the ratio of IP1 to protein concentrations.
# [4] = system: IP1 production in the mouse hippocampus; assay: In vivo IP1 assay after repeated administration for 13 days; conditions: for Basal IP1 level in the mouse hippocampus: after repeated treatment 10 mg/kg p.o. for 13 days, mean ± SEM, n = 10; for magnitude of IP1 increase in mouse hippocampus after 13 days of pretreatment: pretreatment 10 mg/kg p.o. once daily, vs single administration
# Method: as §1
# [5] = Concentrations in plasma and brain of wild-type and M1R KO mice; assay type: in vivo; conditions: mouse, po; for concentration at 2 h: mean ± SD; for Kp at 2 h: brain/plasma
# Method: as §1
# [6] = brain (hippocampus), 10 mg/kg, mouse hippocampus, pretreated with the compound 10 mg/kg p.o. for 13 days, 10 mg/kg p.o., read-out: Brain concentration
# [7] = brain (hippocampus), 10 mg/kg, mouse hippocampus, vehicle-pretreated, 10 mg/kg p.o., read-out: Brain concentration
# [8] = brain (hippocampus), 30 mg/kg, mouse hippocampus, pretreated with the compound 10 mg/kg p.o. for 13 days, 30 mg/kg p.o., read-out: Brain concentration
# [9] = brain (hippocampus), 30 mg/kg, mouse hippocampus, vehicle-pretreated, 30 mg/kg p.o., read-out: Brain concentration
# [10] = plasma, 10 mg/kg, pretreated with the compound 10 mg/kg p.o. for 13 days, 10 mg/kg p.o., read-out: Plasma concentration
# [11] = plasma, 10 mg/kg, vehicle-pretreated, 10 mg/kg p.o., n = 10, read-out: Plasma concentration
# [12] = plasma, 30 mg/kg, pretreated with the compound 10 mg/kg p.o. for 13 days, 30 mg/kg p.o., read-out: Plasma concentration
# [13] = plasma, 30 mg/kg, vehicle-pretreated, 30 mg/kg p.o., n = 10, read-out: Plasma concentration
structure (smiles),measurement,setting,value
"Cc1ccc(Cc2cc3c(=O)n([C@H]4CCCC[C@@H]4O)cnc3c3ccccc23)cn1 [MK‐7622, 3‐((1S,2S)‐2‐hydroxycyclohexyl)‐6‐((6‐methylpyridin‐3‐yl)methyl)benzo[h]quinazolin‐4(3H)‐one, reference compound]",Cooperativity α,human M1R,511
same,Cooperativity Log α,human M1R,2.71 (2.48‐2.94)
same,minimum effective dose for increase of IP1 production in the mouse hippocampus,[1],10 mg/kg
same,concentration at which spontaneous ileum contraction was increased,[2],≤ 0.01 µmol/L
same,concentration at 2 h,[3]; [6],126 ± 28.7 ng/g
same,concentration at 2 h,[3]; [7],137 ± 23.1 ng/g
same,concentration at 2 h,[3]; [8],813 ± 262 ng/g
same,concentration at 2 h,[3]; [9],787 ± 284 ng/g
same,concentration at 2 h,[3]; [10],490 ± 86.4 ng/mL
same,concentration at 2 h,[3]; [11],624 ± 61.4 ng/mL
same,concentration at 2 h,[3]; [12],2430 ± 550 ng/mL
same,concentration at 2 h,[3]; [13],2340 ± 518 ng/mL
same,Basal IP1 level in the mouse hippocampus,[4],0.99± 0.05 nmol/mg protein
same,magnitude of IP1 increase in mouse hippocampus after 13 days of pretreatment,[4],comparable to those after single administration
same,concentration at 2 h,"[5]; brain (hippocampus), 20 mg/kg, M1R KO mice hippocampus, 20 mg/kg p.o., read-out: Brain concentration",456 ± 85.8 ng/g
same,concentration at 2 h,"[5]; brain (hippocampus), 20 mg/kg, wild-type mice hippocampus, 20 mg/kg p.o., read-out: Brain concentration",582 ± 133 ng/g
same,Kp at 2 h,"[5]; 20 mg/kg, M1R KO mice, 20 mg/kg p.o.",0.21
same,Kp at 2 h,"[5]; 20 mg/kg, wild-type mice, 20 mg/kg p.o.",0.26
same,concentration at 2 h,"[5]; plasma, 20 mg/kg, M1R KO mice, 20 mg/kg p.o., n = 10, read-out: Plasma concentration",2190 ± 312 ng/mL
same,concentration at 2 h,"[5]; plasma, 20 mg/kg, wild-type mice, 20 mg/kg p.o., n = 10, read-out: Plasma concentration",2240 ± 376 ng/mL
"Cc1c(Cc2ccc(Cl)nc2)cc2c(c1Cl)OCN([C@H]1CCC[C@@H]1O)C2=O [T‐495, 8‐chloro‐6‐((6‐chloropyridin‐3‐yl)methyl)‐3‐((1S,2S)‐2‐hydroxycyclopentyl)‐7‐methyl‐2,3‐dihydro‐4H‐1,3‐benzoxazin‐4‐one]",Cooperativity α,human M1R,170
same,Cooperativity Log α,human M1R,2.23 (2.07‐2.40)
same,minimum effective dose for increase of IP1 production in the mouse hippocampus,[1],10 mg/kg
same,concentration at which spontaneous ileum contraction was increased,[2],1 µmol/L
same,concentration at 2 h,[3]; [6],879 ± 159 ng/g
same,concentration at 2 h,[3]; [7],956 ± 122 ng/g
same,concentration at 2 h,[3]; [8],4090 ± 599 ng/g
same,concentration at 2 h,[3]; [9],3650 ± 744 ng/g
same,concentration at 2 h,[3]; [10],1300 ± 338 ng/mL
same,concentration at 2 h,[3]; [11],1150 ± 215 ng/mL
same,concentration at 2 h,[3]; [12],5420 ng/mL
same,concentration at 2 h,[3]; [13],4890 ± 923 ng/mL
same,Basal IP1 level in the mouse hippocampus,[4],1.09± 0.03 nmol/mg protein
same,magnitude of IP1 increase in mouse hippocampus after 13 days of pretreatment,[4],comparable to those after single administration
same,concentration at 2 h,"[5]; brain (hippocampus), 10 mg/kg, M1R KO mice hippocampus, 10 mg/kg p.o., read-out: Brain concentration",856 ± 78.4 ng/g
same,concentration at 2 h,"[5]; brain (hippocampus), 10 mg/kg, wild-type mice hippocampus, 10 mg/kg p.o., read-out: Brain concentration",1030 ± 145 ng/g
same,Kp at 2 h,"[5]; 10 mg/kg, M1R KO mice, 10 mg/kg p.o.",0.55
same,Kp at 2 h,"[5]; 10 mg/kg, wild-type mice, 10 mg/kg p.o.",0.62 ± 0.1
same,concentration at 2 h,"[5]; plasma, 10 mg/kg, M1R KO mice, 10 mg/kg p.o., n = 10, read-out: Plasma concentration",1590 ± 266 ng/mL
same,concentration at 2 h,"[5]; plasma, 10 mg/kg, wild-type mice, 10 mg/kg p.o., n = 10, read-out: Plasma concentration",1690 ± 280 ng/mL

# Source: paper PMC6986443, “T‐495, a novel low cooperative M1 receptor positive allosteric modulator, improves memory deficits associated with cholinergic dysfunction and is characterized by low gastrointestinal side effect risk” (Pharmacology Research & Perspectives, 2020)
